From paper PMC9541320, “Machine Learning Guided Discovery of Non‐Hemolytic Membrane Disruptive Anticancer Peptides” (Chemmedchem, 2022)
Values after ≈ are worked out from the molar mass of the structure shown. Like-named read-outs stand apart in the source and are kept apart here. Where a SMILES comes first, the peptide text is derived from it. Where no end group is shown, it is not given here. [ ]: non-standard residue; d: D form.

Columns and labels:
HeLa cells = assay: Cell viability assay by AlamarBlue, HeLa cells; format: cell-based; conditions: 72 h incubation at 37 °C in DMEM high glucose medium with 10 % FBS; read-out: Toxicity IC50 HeLa
Protocol: (§2) To measure potential ACP activity, we exposed HeLa cells to 50 μM of each peptide for 72 h and quantified remaining live cells with Alamar Blue. We performed full IC50 determination for active sequences under the same conditions and similarly profiled HEK293 cells as a model for non‐cancer cells.
(§3) Cell Viability assay by AlamarBlue. […] HEK‐293 were seeded into well plates, pretreated with solution of poly‐L‐Lysine. The medium was removed and the compounds at increasing concentration were added into the wells. The cells were incubated for 72 h in 200 μL/well at 37 °C in corresponding medium in the presence of 5 % CO2. After incubation time the medium was removed and replaced by 100 μL/well of medium containing 10 % AlamarBlue. The cells were incubated for 3–5 h at 37 °C with 5 % CO2 in a humidified atmosphere. The fluorescence was then measured on a Tecan Infinite M1000 Pro plate reader at λex 560 nm and λem 590 nm. The value was normalized according to the untreated cells.

HEK293 cells = assay: Cell viability assay by AlamarBlue, HEK293 cells (model for non-cancer cells); format: cell-based; conditions: 72 h incubation at 37 °C in DMEM high glucose medium with 10 % FBS; read-out: Toxicity IC50 HEK 293
Protocol: as §2, §3

[1] = test system: human red blood cells (hRBC); assay: Hemolysis assay on human red blood cells; format: cell-based
Source text: Synthesis and bioactivity testing. We prepared the 33 selected peptides, as well as the reference ACP LL‐III, by semi‐automated high‐temperature Fmoc solid‐phase peptide synthesis and obtained pure samples by preparative HPLC. All peptides were well‐behaved in terms of aqueous solubility, in line with the presence of two to seven cationic residues (lysine or arginine) in each sequence (Table 1). […]. We performed full IC50 determination for active sequences under the same conditions and similarly profiled HEK293 cells as a model for non‐cancer cells. Finally, we determined peptide concentrations causing 50 % hemolysis (HC50) on human red blood cells (hRBC) by serial 2‐fold dilution.
Hemolysis assay. Compounds were subjected to a hemolysis assay to assess the hemolytic effect on human red blood cells (hRBCs). […]. Controls on each plate included a blank medium control (PBS 100 μL) and a hemolytic activity control (0.1 % Triton^TM X‐100). 100 μL of hRBC suspension was incubated with 100 μL of each sample in PBS in V‐shape 96‐well plate. […]. Hemolysis was measured by analyzing the absorbance of free hemoglobin leaked out of compromised in the supernatants at 540 nm with a plate reader (Tecan instrument Infinite M1000). The percentage of hemolysis at each concentration was detected and HC50 was determined.

P. aeruginosa PAO1 (WT) = format: cell-based, Pseudomonas aeruginosa
Protocol: (§1) […]. Minimal inhibitory concentration (MIC) determination. The minimal inhibitory concentration (MIC) was determined by using broth microdilution method. Antimicrobial activity was assayed against P. aeruginosa PAO1 (WT), Acinetobacter baumannii (ATCC19606). […]. The next day, 15 μL of MTT solution was added to each well of the plate, such a way that MIC was defined as the lowest concentration of the peptide that inhibited visible growth of the tested bacteria.

[2] = test system: Acinetobacter baumannii (ATCC19606); format: cell-based
Protocol: as §1

[3] = test system: human red blood cells (hRBC); conditions: below 200 μM; cited from earlier work
[4] = human red blood cells in 10 mM phosphate buffer saline, pH 7.4, 25 °C
[5] = incubation 16–20 h at 37 °C in MH medium

Compound | IC50 (HeLa cells) [µM] | IC50 (HEK293 cells) [µM] | Hemolysis HC50 hRBC ([1]; pH 7.4) [µM] | MIC PAO1 (P. aeruginosa PAO1 (WT); PAO1) [µg/mL] | MIC A. baumannii ([2]; ATCC19606) [µg/mL] | Hemolysis HC50 hRBC [1, 4] [µM] | MIC PAO1 (P. aeruginosa PAO1 (WT); [5]) [µg/mL] | MIC A. baumannii [2, 5] [µg/mL] | documented hemolysis [3]
C[C@@H](NC(=O)[C@H](N)Cc1ccccc1)C(=O)N[C@H](CCCCN)C(=O)N[C@H](CCCCN)C(=O)N[C@H](Cc1ccccc1)C(=O)N[C@H](Cc1ccccc1)C(=O)N[C@H](CCCCN)C(=O)N[C@H](CCCCN)C(=O)N[C@H](Cc1ccccc1)C(=O)N[C@H](C)C(=O)N[C@H](CCCCN)C(=O)N[C@H](Cc1ccccc1)C(=O)N[C@H](C)C(=O)N[C@H](Cc1ccccc1)C(=O)N[C@H](CCCCN)C(N)=O [DA1, fakkffkkfakfafk] (H-[dF][dA][dK][dK][dF][dF][dK][dK][dF][dA][dK][dF][dA][dF][dK]-NH2) | 7.9 ± 0.3 | 15 ± 2.3 | >200 | 4 (≈ 2.12 µM) | 4 (≈ 2.12 µM) |  |  |  | 
CC[C@@H](C)[C@@H](NC(=O)[C@@H](CCCCN)NC(=O)[C@@H](CCCCN)NC(=O)[C@@H](Cc1c[nH]c2ccccc12)NC(=O)[C@@H](CC(N)=O)NC(=O)[C@H](N)C(C)C)C(=O)N[C@H](CC(C)C)C(=O)NCC(=O)N[C@H](CCCCN)C(=O)N[C@@H](C(=O)N[C@@H](C(=O)N[C@H](CCCCN)C(=O)N[C@@H](C(=O)N[C@@H](C(=O)N[C@H](CCCCN)C(N)=O)C(C)C)C(C)C)[C@H](C)CC)[C@H](C)CC [DLL‐III, vnwkkilgkiikvvk] (H-[dV][dN][dW][dK][dK][dI][dL]G[dK][dI][dI][dK][dV][dV][dK]-NH2) | 5 ± 0.7 | 14.5 ± 2 |  |  |  | >200 | 4 (≈ 2.27 µM) | 2 (≈ 1.13 µM) | 
VNWKKILGKIIKVVK-NH2 [LL‐III, lasioglossin III] | 6 ± 0.5 | 15 ± 3 |  |  |  | >200 |  | 4 | non‐hemolytic
anwkkwigkviklvk [DB1] | 6.2 ± 1.1 | 13.1 ± 2.8 |  |  |  |  | 4 | 2 | 
